Common to all, as to assay type: cell-based
One assay deals with 42-77 S. epidermidis. As to conditions: planctonic. From the text: (§1) Minimum Inhibitory Concentration (MIC) on Planctonic Bacteria
The next assay concerns 51-07 S. haemolyticus. As to conditions: planctonic.
From the text: as §1

Another assay has as its system 8-16 S. epidermidis. As to conditions: planctonic.
From the text: as §1

For another assay, the system named is PIA 90 S. aureus. As to conditions: planctonic.
From the text: as §1

The subject of the next assay is 51-03 S. haemolyticus. As to conditions: planctonic.
From the text: as §1

In a further assay the test system is PIA 9 S. aureus. As to conditions: planctonic.
From the text: as §1

Assay [1] has as its system 42-77 S. epidermidis biofilm. Nature of the assay: MBIC, biofilm survival rate by Alamar blue, Example 3. As to conditions: 24 h. The method, then:
(§2) Biofilm formation was induced in 96-well flat bottom microtitre plates (Nunclon Surface, NUNC). First, overnight cultures were diluted 1:100 in MHIIB (S. epidermidis and S. haemolyticus) or tryptic soy broth (TSB) with 5% glucose and 5% NaCl (S. aureus). […] of this bacterial suspension (10^7 cfu/ml) was added to each well and incubated for 24 h at 37° C. After 24 h the wells were carefully washed twice with phosphate-buffered saline (PBS) to remove planktonic bacteria. The washing procedure was carefully evaluated by measuring metabolic activity of the PBS with the Alamar blue method, described in detail below.
(§3) The washed biofilms were subjected to treatment with the Compounds at different concentrations.
(§4) Trifluoroacetate salts of the compounds were dissolved in sterile water and diluted to 5 mg/L, 50 mg/L and 500 mg/L in MHIIB. […] of the Compounds, in different concentrations, were added to each well and incubated for 24 h at 37° C. Positive controls were untreated biofilms only added 200 MHIIB. Negative controls were only 200 μl MHIIB, with no bacteria added.
(§5) The metabolic activity of the biofilm was quantified with a slightly modified method previously described by Pettit et al. Antimicrob. Agents Chemother. 2005; 49: 2612-7. Briefly, after the 24 h incubation with antimicrobial agents the wells were again washed twice with PBS and then added […] MHIIB with 5% Alamar blue (AB; Biosource, Camarillo, Calif., USA). AB is a redox indicator which both fluoresces and changes colour in response to chemical reduction. The extent of reduction is a reflection of bacterial cell viability. After 1 h incubation at 37° C., absorbance was recorded at 570 and 600 nm using Versamax tuneable microplate reader (Molecular Devices, Sunnyvale, Calif., USA). All assays were performed 3 times with 8 parallels. The highest and lowest value of each run was excluded from the analyses, and the remaining 18 values were averaged.

A further assay deals with PIA 90 S. aureus biofilm. The assay is described as above. As to conditions: 24 h. The method, then:
as §2, §3, §4, §5

The subject of assay [2] is 51-03 S. haemolyticus biofilm. The description is as above. As to conditions: 24 h. As to the method:
as §2, §3, §4, §5

For assay [3], the system named is 51-07 S. haemolyticus biofilm. The assay is described as above. As to conditions: 24 h. The method, then: as §2, §3, §4, §5
Assay [4] relates to 8-16 S. epidermidis biofilm. The assay is described as above. As to conditions: 24 h. The method, then:
as §2, §3, §4, §5

In another assay the test system is PIA 9 S. aureus biofilm. Described as above. As to conditions: 24 h. As to the method: as §2, §3, §4, §5

This is an account of results in US9085608B2, “Treatment of biofilms” (LYTIX BIOPHARMA AS, priority 2008, dated 2015).

≈ marks a conversion by molar mass, not a printed value. Residues, ends and D or L forms follow the SMILES beside them. *: point of attachment. NHPhenethyl = c1ccc(CCN*)cc1

One may read the MIC as the lowest concentration found to suppress growth. As to `N=C(N)NCCC[C@H](NC(=O)[C@H](Cc1c[nH]c2ccccc12)NC(=O)[C@H](Cc1c[nH]c2ccccc12)NC(=O)[C@@H](N)CCCNC(=N)N)C(=O)NCCc1ccccc1` [ME 171 B, R-W-W-R-NH-CH2CH2Ph] (H-RWWR-NHPhenethyl), the MIC with 42-77 S. epidermidis came to 64 µg/mL (≈ 79.4 µM); with 51-07 S. haemolyticus it was 32 µg/mL (≈ 39.7 µM); with 8-16 S. epidermidis, 64 µg/mL (≈ 79.4 µM); with PIA 90 S. aureus, 128 µg/mL (≈ 159 µM); in the assay with 51-03 S. haemolyticus, 32 µg/mL (≈ 39.7 µM); against PIA 9 S. aureus, 128 µg/mL (≈ 159 µM). Further, the “MBIC measured as survival rate” value in [1] (5 μg/ml) was determined as 100%; in [1] (50 μg/ml) it was 90%; in [1] (500 μg/ml), 10%; with PIA 90 S. aureus biofilm (5 μg/ml), 100%; in the assay with PIA 90 S. aureus biofilm (50 μg/ml), 80%; in the assay with PIA 90 S. aureus biofilm (500 μg/ml), 5%. Moreover, the “MBIC measured as survival rate” value in [2] (5 μg/ml) was 100%; in assay [2] (50 μg/ml), 8%; in assay [2] (500 μg/ml) it was 9%; in [3] (5 μg/ml), 100%; in assay [3] (50 μg/ml), 60%; in [3] (500 μg/ml) it was 12%. Also, the “MBIC measured as survival rate” value in assay [4] (5 μg/ml) is 100%; in assay [4] (50 μg/ml), 70%; in assay [4] (500 μg/ml) it was 4%; in the assay with PIA 9 S. aureus biofilm (5 μg/ml) it was 100%; in the assay with PIA 9 S. aureus biofilm (50 μg/ml), 100%; in the assay on PIA 9 S. aureus biofilm (500 μg/ml), 90%.

For `N=C(N)NCCC[C@H](NC(=O)[C@H](Cc1c[nH]c2ccccc12)NC(=O)[C@H](Cc1c[nH]c2ccccc12)NC(=O)[C@H](CCCNC(=N)N)NC(=O)[C@@H](N)Cc1c[nH]c2ccccc12)C(=O)NCCc1ccccc1` [ME 172, W-R-W-W-R-NH-CH2CH2Ph] (H-WRWWR-NHPhenethyl), the minimum inhibitory concentration (MIC) was 16 µg/mL (≈ 16.1 µM) in the assay on 42-77 S. epidermidis; 8 µg/mL (≈ 8.06 µM) in the assay with 51-07 S. haemolyticus; 16 µg/mL (≈ 16.1 µM) in the assay with 8-16 S. epidermidis; 32 µg/mL (≈ 32.3 µM) in the assay with PIA 90 S. aureus; 8 µg/mL (≈ 8.06 µM) with 51-03 S. haemolyticus; 16 µg/mL (≈ 16.1 µM) against PIA 9 S. aureus. Moreover, the “MBIC measured as survival rate” value in assay [1] (5 μg/ml) amounted to 100%; in [1] (50 μg/ml), 85%; in assay [1] (500 μg/ml) it was 10%; in the assay with PIA 90 S. aureus biofilm (5 μg/ml) it was 100%; with PIA 90 S. aureus biofilm (50 μg/ml) it was 55%; with PIA 90 S. aureus biofilm (500 μg/ml), 10%. Moreover, the “MBIC measured as survival rate” value in assay [2] (5 μg/ml) is reported as 100%; in assay [2] (50 μg/ml), 6%; in assay [2] (500 μg/ml), 8%; in assay [3] (5 μg/ml), 100%; in assay [3] (50 μg/ml), 41%; in assay [3] (500 μg/ml) it was 12%. Moreover, the “MBIC measured as survival rate” value in assay [4] (5 μg/ml) worked out at 100%; in [4] (50 μg/ml), 80%; in assay [4] (500 μg/ml) it was 20%; in the assay with PIA 9 S. aureus biofilm (5 μg/ml), 100%; with PIA 9 S. aureus biofilm (50 μg/ml), 100%; in the assay on PIA 9 S. aureus biofilm (500 μg/ml) it was 18%.
